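1) Cells in 96-well plates. 2) Compound, 48 h, 5 concentrations. 3) Linear interpolation between surrounding doses. 4) Unreached endpoint = highest concentration. The concentration for 50% growth inhibition is given as GI50. The concentration for full growth arrest is given as TGI.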
Columns and labels:
Test in all cases: NCI tumour cell line growth inhibition, 48 h
SNB-19 CNS = tested on: SNB-19 CNS
SNB-75 CNS = tested on: SNB-75 CNS
K-562 leukemia = tested on: K-562 leukemia
SF-268 CNS = tested on: SF-268 CNS
786-0 renal = tested on: 786-0 renal
CCRF-CEM leukemia = tested on: CCRF-CEM leukemia
OVCAR-4 ovarian = tested on: OVCAR-4 ovarian
RXF 393 renal = tested on: RXF 393 renal
LOX IMVI melanoma = tested on: LOX IMVI melanoma
IGROV1 ovarian = tested on: IGROV1 ovarian

Nc1ccc(C(=O)O)c2[nH]c3ccccc3c(=O)c12
TGI (SNB-19 CNS): > 100 µM | TGI (SNB-75 CNS): > 100 µM | TGI (K-562 leukemia): > 100 µM | TGI (SF-268 CNS): > 100 µM | TGI (786-0 renal): > 100 µM | TGI (CCRF-CEM leukemia): > 100 µM | TGI (OVCAR-4 ovarian): > 100 µM | TGI (RXF 393 renal): > 100 µM | TGI (LOX IMVI melanoma): > 100 µM | TGI (IGROV1 ovarian): > 100 µM

CCN=C(N)CSS(=O)(=O)O
TGI (SNB-19 CNS): > 100 µM | TGI (SNB-75 CNS): > 100 µM | TGI (K-562 leukemia): > 100 µM | TGI (SF-268 CNS): > 100 µM | TGI (786-0 renal): > 100 µM | TGI (CCRF-CEM leukemia): > 100 µM | TGI (OVCAR-4 ovarian): > 100 µM | TGI (RXF 393 renal): > 100 µM | TGI (LOX IMVI melanoma): > 100 µM | TGI (IGROV1 ovarian): > 100 µM

CC(=O)OCC1OC(n2cnc3c(I)nc(I)nc32)C(OC(C)=O)C1OC(C)=O (centres undefined)
TGI (SNB-19 CNS): 25 µM | TGI (SNB-75 CNS): 30.2 µM | TGI (K-562 leukemia): 13.5 µM | TGI (SF-268 CNS): 28.5 µM | TGI (786-0 renal): 27.8 µM | TGI (CCRF-CEM leukemia): 27.4 µM | TGI (OVCAR-4 ovarian): 17.4 µM | TGI (RXF 393 renal): 38.3 µM | TGI (LOX IMVI melanoma): 29.4 µM | TGI (IGROV1 ovarian): 19.8 µM

COc1cc2c(c(Br)c1N)-c1cc(Br)c(N)cc1C2=O
GI50 (SNB-19 CNS): > 100 µM | TGI (SNB-19 CNS): > 100 µM | GI50 (SNB-75 CNS): 1.96 µM | TGI (SNB-75 CNS): > 100 µM | GI50 (K-562 leukemia): > 100 µM | TGI (K-562 leukemia): > 100 µM | GI50 (SF-268 CNS): 7.37 µM | TGI (SF-268 CNS): > 100 µM | GI50 (786-0 renal): > 100 µM | TGI (786-0 renal): > 100 µM | GI50 (CCRF-CEM leukemia): > 100 µM | TGI (CCRF-CEM leukemia): > 100 µM | GI50 (OVCAR-4 ovarian): 1.77 µM | TGI (OVCAR-4 ovarian): > 100 µM | GI50 (RXF 393 renal): > 100 µM | TGI (RXF 393 renal): > 100 µM | GI50 (LOX IMVI melanoma): > 100 µM | TGI (LOX IMVI melanoma): > 100 µM | GI50 (IGROV1 ovarian): 0.205 µM | TGI (IGROV1 ovarian): > 100 µM

Cc1ccc(C)c(NC(=O)CCC(=O)CC(=O)C(C)(C)C)c1
TGI (SNB-19 CNS): > 100 µM | TGI (SNB-75 CNS): > 100 µM | TGI (K-562 leukemia): > 100 µM | TGI (SF-268 CNS): > 100 µM | TGI (786-0 renal): > 100 µM | TGI (CCRF-CEM leukemia): > 100 µM | TGI (OVCAR-4 ovarian): > 100 µM | TGI (RXF 393 renal): > 100 µM | TGI (LOX IMVI melanoma): > 100 µM | TGI (IGROV1 ovarian): > 100 µM

NCCCNCCCNc1nc2ccccc2c2[nH]c3ccccc3c12
GI50 (SNB-19 CNS): 0.0785 µM | TGI (SNB-19 CNS): 1.42 µM | GI50 (SNB-75 CNS): 0.224 µM | TGI (SNB-75 CNS): 1.29 µM | GI50 (K-562 leukemia): 0.0578 µM | GI50 (SF-268 CNS): 0.0264 µM | TGI (SF-268 CNS): 1.72 µM | GI50 (786-0 renal): 0.0975 µM | TGI (786-0 renal): 1.56 µM | GI50 (CCRF-CEM leukemia): 0.126 µM | TGI (CCRF-CEM leukemia): 2.42 µM | GI50 (OVCAR-4 ovarian): 0.198 µM | TGI (OVCAR-4 ovarian): 1.39 µM | GI50 (RXF 393 renal): 0.313 µM | TGI (RXF 393 renal): 2.13 µM | GI50 (LOX IMVI melanoma): 0.0363 µM | TGI (LOX IMVI melanoma): 1.12 µM | GI50 (IGROV1 ovarian): 0.0837 µM | TGI (IGROV1 ovarian): 1.03 µM

Nc1nccc(C#Cc2cncnc2Nc2ccc(OCc3cccc(F)c3)c(Cl)c2)n1
GI50 (SNB-19 CNS): 4.79 µM | TGI (SNB-19 CNS): 10 µM | GI50 (SNB-75 CNS): 5.75 µM | TGI (SNB-75 CNS): > 14.3 µM | GI50 (K-562 leukemia): 4.24 µM | TGI (K-562 leukemia): > 25 µM | GI50 (SF-268 CNS): 4.5 µM | TGI (SF-268 CNS): 9.28 µM | GI50 (786-0 renal): 7.69 µM | TGI (786-0 renal): > 20.1 µM | GI50 (CCRF-CEM leukemia): 1.33 µM | TGI (CCRF-CEM leukemia): > 19.2 µM | GI50 (OVCAR-4 ovarian): 9.53 µM | TGI (OVCAR-4 ovarian): > 25 µM | GI50 (RXF 393 renal): 4.02 µM | TGI (RXF 393 renal): 8.9 µM | GI50 (LOX IMVI melanoma): 1.72 µM | TGI (LOX IMVI melanoma): 6.01 µM | GI50 (IGROV1 ovarian): 5.1 µM | TGI (IGROV1 ovarian): 20 µM

CC[C@]12C=CCN3CC[C@]4(C(=C(C(=O)OC)C1)Nc1ccccc14)[C@@H]32
GI50 (SNB-19 CNS): 10.7 µM | TGI (SNB-19 CNS): 23.3 µM | GI50 (SNB-75 CNS): 2.15 µM | TGI (SNB-75 CNS): 7.93 µM | GI50 (K-562 leukemia): 3.08 µM | TGI (K-562 leukemia): 15.1 µM | GI50 (SF-268 CNS): 4.6 µM | TGI (SF-268 CNS): 19.3 µM | GI50 (786-0 renal): 3.66 µM | TGI (786-0 renal): 15.6 µM | GI50 (CCRF-CEM leukemia): 2.73 µM | TGI (CCRF-CEM leukemia): > 100 µM | GI50 (OVCAR-4 ovarian): 4.4 µM | TGI (OVCAR-4 ovarian): 17.5 µM | GI50 (RXF 393 renal): 2.51 µM | TGI (RXF 393 renal): 7.24 µM | GI50 (LOX IMVI melanoma): 1.94 µM | TGI (LOX IMVI melanoma): 4.13 µM | GI50 (IGROV1 ovarian): 5.8 µM | TGI (IGROV1 ovarian): 20.6 µM

COc1ccc(C=O)c(N(C)C(=O)C(C)(C)C)c1
TGI (SNB-19 CNS): > 100 µM | TGI (SNB-75 CNS): > 100 µM | TGI (K-562 leukemia): > 100 µM | TGI (SF-268 CNS): > 100 µM | TGI (786-0 renal): > 100 µM | TGI (CCRF-CEM leukemia): > 100 µM | TGI (OVCAR-4 ovarian): > 100 µM | TGI (RXF 393 renal): > 100 µM | TGI (LOX IMVI melanoma): > 100 µM | TGI (IGROV1 ovarian): > 100 µM

COc1ccc(C(=O)Nc2ccccc2C#N)cc1
TGI (SNB-19 CNS): > 100 µM | TGI (SNB-75 CNS): > 100 µM | TGI (K-562 leukemia): > 100 µM | TGI (SF-268 CNS): > 100 µM | TGI (786-0 renal): > 100 µM | TGI (CCRF-CEM leukemia): > 100 µM | TGI (OVCAR-4 ovarian): > 100 µM | TGI (RXF 393 renal): > 100 µM | TGI (LOX IMVI melanoma): > 100 µM | TGI (IGROV1 ovarian): > 100 µM

COC(=O)C1(c2ccc(OC)cc2)NC(c2ccccc2)C2C(=O)N(c3ccc(OC)cc3)C(=O)C21 (centres undefined)
TGI (SNB-19 CNS): > 100 µM | TGI (SNB-75 CNS): > 100 µM | TGI (K-562 leukemia): > 100 µM | TGI (SF-268 CNS): > 100 µM | TGI (786-0 renal): > 100 µM | TGI (CCRF-CEM leukemia): > 100 µM | TGI (OVCAR-4 ovarian): > 100 µM | TGI (RXF 393 renal): > 100 µM | TGI (LOX IMVI melanoma): > 100 µM | TGI (IGROV1 ovarian): > 100 µM

C[CH2][Sn]([CH2]C)([O]C(=O)c1cc(OC)c(OC)c(OC)c1)[O][Sn]([CH2]C)([CH2]C)[O]C(=O)c1cc(OC)c(OC)c(OC)c1
GI50 (SNB-19 CNS): > 75.1 µM | TGI (SNB-19 CNS): > 100 µM | GI50 (SNB-75 CNS): 28.6 µM | TGI (SNB-75 CNS): > 88.7 µM | GI50 (K-562 leukemia): 20.9 µM | TGI (K-562 leukemia): > 64.9 µM | GI50 (SF-268 CNS): 20.6 µM | TGI (SF-268 CNS): 44.1 µM | GI50 (786-0 renal): 27.4 µM | TGI (786-0 renal): > 59.8 µM | GI50 (CCRF-CEM leukemia): 7.78 µM | TGI (CCRF-CEM leukemia): 33.1 µM | GI50 (OVCAR-4 ovarian): > 100 µM | TGI (OVCAR-4 ovarian): > 100 µM | GI50 (RXF 393 renal): 12.4 µM | TGI (RXF 393 renal): 27.9 µM | GI50 (LOX IMVI melanoma): 18.5 µM | TGI (LOX IMVI melanoma): 33.2 µM | GI50 (IGROV1 ovarian): > 100 µM | TGI (IGROV1 ovarian): > 100 µM

O=C1c2cccnc2-c2nc(-c3ccccc3)cc3c2c1nc1ccccc13
GI50 (SNB-19 CNS): 3.71 µM | TGI (SNB-19 CNS): 20.1 µM | GI50 (SNB-75 CNS): 10.5 µM | TGI (SNB-75 CNS): 23.1 µM | GI50 (K-562 leukemia): 0.658 µM | TGI (K-562 leukemia): 3.91 µM | GI50 (SF-268 CNS): 3.93 µM | TGI (SF-268 CNS): 18.8 µM | GI50 (786-0 renal): 5.88 µM | TGI (786-0 renal): 20.1 µM | GI50 (CCRF-CEM leukemia): 2.98 µM | TGI (CCRF-CEM leukemia): 29.7 µM | GI50 (OVCAR-4 ovarian): 4.33 µM | TGI (OVCAR-4 ovarian): 10.1 µM | GI50 (RXF 393 renal): 16 µM | TGI (RXF 393 renal): 32.3 µM | GI50 (LOX IMVI melanoma): 6.37 µM | TGI (LOX IMVI melanoma): 32.6 µM | GI50 (IGROV1 ovarian): 2.35 µM | TGI (IGROV1 ovarian): 8.92 µM

Reference: PubChem BioAssay (NCI)
